One may read the Km as the concentration of substrate that gives half-maximal velocity. In general, kcat refers to the maximal rate divided by the concentration of active sites.

Residue numbers refer to the chain shown, from its start. Names and notes keep the numbering of the source.

The values that follow come from paper PMC9405973, “Altered Conformational Landscape upon Sensing Guanine Nucleotides in a Disease Mutant of Elongation Factor-like 1 (EFL1) GTPase” (Biomolecules, 2022).

The target in one data set is T1, Efl1 R1086Q (Saccharomyces cerevisiae, UniProt P53893, R1086Q).
T1 construct: made in house; host or cells: Saccharomyces cerevisiae
T1 sequence (P53893 whole entry R1086Q): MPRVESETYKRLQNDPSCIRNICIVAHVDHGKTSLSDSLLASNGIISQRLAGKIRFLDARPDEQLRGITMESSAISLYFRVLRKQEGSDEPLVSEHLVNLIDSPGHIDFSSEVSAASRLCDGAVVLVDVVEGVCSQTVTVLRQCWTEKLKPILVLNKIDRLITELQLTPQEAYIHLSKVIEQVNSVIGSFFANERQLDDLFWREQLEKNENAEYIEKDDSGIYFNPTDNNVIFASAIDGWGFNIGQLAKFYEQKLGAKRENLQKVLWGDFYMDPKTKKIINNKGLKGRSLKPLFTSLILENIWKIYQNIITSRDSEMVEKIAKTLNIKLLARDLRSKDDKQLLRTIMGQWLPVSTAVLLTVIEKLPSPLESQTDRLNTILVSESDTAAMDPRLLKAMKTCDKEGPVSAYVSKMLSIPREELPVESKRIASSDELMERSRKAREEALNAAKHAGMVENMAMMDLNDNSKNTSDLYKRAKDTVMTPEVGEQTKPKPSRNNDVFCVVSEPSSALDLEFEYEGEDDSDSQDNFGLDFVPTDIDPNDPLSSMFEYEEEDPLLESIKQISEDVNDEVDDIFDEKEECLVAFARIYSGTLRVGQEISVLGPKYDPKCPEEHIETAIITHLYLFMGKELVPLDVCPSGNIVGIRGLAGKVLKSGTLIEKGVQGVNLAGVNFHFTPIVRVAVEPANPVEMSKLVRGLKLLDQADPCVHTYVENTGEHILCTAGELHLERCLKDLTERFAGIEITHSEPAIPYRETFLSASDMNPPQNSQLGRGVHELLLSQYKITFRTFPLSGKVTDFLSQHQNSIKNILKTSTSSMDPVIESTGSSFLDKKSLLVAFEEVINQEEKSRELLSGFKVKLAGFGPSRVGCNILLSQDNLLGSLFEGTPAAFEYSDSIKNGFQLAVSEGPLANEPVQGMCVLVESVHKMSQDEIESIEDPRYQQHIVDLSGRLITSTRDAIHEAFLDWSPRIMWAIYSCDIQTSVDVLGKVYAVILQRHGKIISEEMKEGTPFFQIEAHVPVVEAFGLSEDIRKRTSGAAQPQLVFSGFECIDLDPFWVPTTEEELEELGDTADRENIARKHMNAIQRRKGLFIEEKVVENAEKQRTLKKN
The experiment in a line: Isothermal titration calorimetry (ITC): binding of guanine nucleotides or Sdo1 to Efl1 R1086Q. The settings on record: for Nconfres (number of residues changing conformation, absolute value) / ΔCpb: +Mg^2+; for Nconfres (number of residues changing conformation, absolute value): 30 °C; for ΔCpb: guanine nucleotide, from ΔHb at 25–35 °C. The procedure:
(§1) All calorimetric measurements were carried out using MicroCal^TM iTC200 System (GE Healthcare, Northampton, MA, USA) in a temperature range of 25–35 °C. Experiments were performed in a buffer consisting of 50 mM Tris-HCl (pH 8.0), 150 mM NaCl, 100 µM DTT, and 5% glycerol. In the titrations with Mg^2+-bound nucleotides, both the ligand and protein solutions contained 5 mM MgCl2. In the case of titrations with Mg^2+-free nucleotide, both the ligand and protein solutions were supplemented with 2 mM EDTA to sequester any residual trace of metal ions in solution. Protein samples and ligands were prepared in the exact same buffer prior to each titration. Protein concentration in the cell comprised 30–50 µM GTPase, while the ligand concentration in the syringe was 2–3 mM for GTP, MgGTP, GDP, and MgGDP. To ensure measuring the interaction of the complex Efl1 R1086Q•Sdo1 with the nucleotide, an eight-fold concentration excess of Sdo1 was used compared with that of the enzyme. […] The titration schedule consisted of 15–20 consecutive injections of the ligand with 5 min intervals between injections and a stirring rate of 700 rpm. The dilution heat of the ligand was obtained by adding the ligand to a buffer solution under identical conditions and with the same injection schedule used for the protein sample. All samples were degassed for 10 min prior to the experiment.
(§2) The binding isotherms obtained for the isolated GTPase in the presence of Mg(II) were analysed using a ternary model in which the protein can bind to the free nucleotide (G(D)TP) or that bound to one magnesium ion (MgG(D)TP); additionally, GTP may also exist in the form of Mg2GTP, which is not recognised by the protein. The derivation of this coupled-equilibria model can be reviewed in [6, 31]. The binding constant (Kb), the enthalpy change (∆Hb), and the stoichiometry (n) were obtained with the non-linear routines implemented in Origin 5.0 (OriginLab, Co., Northampton, MA, USA) using a one-binding-site model as described in [32, 33]. The heterotropic cooperativity for the binding of guanine nucleotides and Sdo1 to Efl1 R1086Q were calculated as previously described in [6, 32]. The cooperative effects of Mg(II) on the binding of guanine nucleotides to Efl1 R1086Q alone and bound to Sdo1 were calculated as follows:κ = KE-MG/KE-G κ = KES-MG/KES-G Δh = ΔHE-MG − ΔHE-G Δh = ΔHES-MG − ΔHES-G where subscripts E-MG and E-G stand for the association of the metal-bound and metal-free guanine nucleotide with mutant Efl1, respectively. Corresponding expressions applied to the heterotropic cooperativity of the binding of nucleotides to the preformed complex, Efl1•Sdo1 (ES).
(§3) The impact of Sdo1 on the binding of Efl1 R1086Q to guanine nucleotides in the presence of magnesium ions is contained in KES-MG and ΔHES-MG relative to the KE-S and ΔHE-S values; analogous ratios report the effects in the absence of Mg(II):κ = KES-MG/KE-S κ = KES-G/KE-G Δh = ΔHES-MG − ΔHE-S Δh = ΔHES-G − ΔHE-G
(§4) The corresponding cooperative entropy change was calculated as:TΔs = Δh − Δg = Δh + RTlnκ
(§5) The detailed methodology and equations to compute the changes in the accessible surface area (∆ASA) of the GTPase upon binding to nucleotides and the ∆S energetic-based parameters are reported in [6]. Briefly, the water-accessible areas (ASAs) were computed using programme NACCESS, while the changes in accessible surface area (ΔASA) upon the formation of each GTPase–nucleotide complex were estimated considering the difference between the complex and the sum of the free interacting partners. The calculated polar (ΔASAp) and apolar (ΔASAap) area changes were subsequently used to estimate the free molecular partners. […]
For orientation: Isothermal titration calorimetry measures the heat released or taken up as one component is titrated into another.

For another data set, the target named is T2, Efl1 R1086Q•Sdo1 (Saccharomyces cerevisiae, UniProt P53893, R1086Q).
T2 construct: made in house; host or cells: Efl1: Saccharomyces cerevisiae; Sdo1: Escherichia coli C41
T2 sequence (P53893 whole entry R1086Q, one chain of several): as the sequence (P53893 whole entry R1086Q) above
In words: ITC: binding of guanine nucleotides to pre-formed complex Efl1 R1086Q•Sdo1. The procedure:
as §1, §2, §3, §4, §5

Another data set has as its target T3, Efl1 R1086Q P151L (Saccharomyces cerevisiae, UniProt P53893, P151L/R1086Q).
T3 construct: made in house; host or cells: Saccharomyces cerevisiae
In words: ITC: binding of GTP to double mutant Efl1 R1086Q P151L. The settings on record: +Mg^2+, from ΔHb at 25–35 °C.

Another data set has as its system wild-type Efl1. The settings on record: guanine nucleotide, +Mg^2+; cited from earlier work.
Substrate in data set [1]: Nc1nc2c(ncn2[C@@H]2O[C@H](COP(=O)(O)OP(=O)(O)OP(=O)(O)O)[C@@H](O)[C@H]2O)c(=O)[nH]1
The experiment in a line: GTP hydrolysis by PNP-coupled Enzchek phosphate assay (MESG, 360 nm), pH 7.5, 5 mM MgCl2, 6 µM Efl1 alone, Michaelis-Menten fit. The format is biochemical. The conditions noted are these: 25.0 °C. The procedure: (§6) Finally, we measured the enzyme kinetics of mutant Efl1 R1086Q as an isolated enzyme and bound to Sdo1 using an enzymatic coupled assay with a purine nucleoside phosphorylase (PNP) enzyme. This analysis was extended to another disease mutation (EFL1 M882K) also located in domain IV of the GTPase using the equivalent yeast variant, Efl1 L910K [17]. The Km and kcat kinetic parameters were calculated using non-linear regression assuming a Michaelis–Menten model (Supplementary Table S1). […] The catalytic constant for mutant R1086Q and the wild-type enzyme consisted of 0.67 min^−1, and it was 0.58 min^−1 for mutant Efl1 L910K. […] In line with the proposed role of Sdo1 as a guanine exchange factor of Efl1, previous results have shown that the interaction of wild-type Efl1 with Sdo1 impacted its Km for GTP, decreasing its value 2–3-fold. The Km values for the complexes formed between Sdo1 and Efl1 mutants decreased by half with respect to their cognate-free counterpart and differed from each other. […] The measured Km value comprises all the microscopic rate constants of the individual reactions occurring in the enzyme, which include the binding to the substrate and product and the corresponding conformational changes.
Hydrolysis of GTP was measured using the Enzchek Phosphate Assay kit (Molecular Probes) as described by Webb. […]
Reactions were initiated and the GTPase was added after 3 min. Time courses were followed by recording the change in absorbance at 360 nm in a Cary 60 UV -Vis spectrophotometer (Agilent Technologies). Background absorbance was recorded prior to the addition of the GTPase and subtracted from the sample signals. The slope of the measured time courses corresponded to the GTP hydrolysis rate. […] Data were analysed by nonlinear regression to the M ichaelis-Menten equation with the program Origin Version 5.0 (OriginLab, Co., Northampton, MA). […]
(§7) Maximum emission at 440 nm was replotted as a function of nucleotide concentration and analysed

Data set [2] can be described thus: Enzyme kinetics of GTP hydrolysis (PNP coupled assay, Michaelis–Menten). The format is biochemical, Saccharomyces cerevisiae. The conditions noted are these: enzyme in complex with Sdo1 (25 µM Sdo1). The protocol:
as §6
Hydrolysis of GTP was measured using the Enzchek Phosphate Assay kit (Molecular Probes) as described by Webb. Standard reactions consisted of 100 µL containing 6 µM of Efl1 R1086Q and Efl1 L910K, 0.3 mM MESG, 1.0 U purine nucleoside phosphorylase (PNP) and the indicated amounts of GTP. Measurements done in the presence of effector protein contained 25 µM of Sdo1.
The reaction buffer consisted of 50 mM HEPES -KOH pH 7.5, 150 mM NaCl, 5 mM MgCl2.
Reactions were initiated and the GTPase was added after 3 min. Time courses were followed by recording the change in absorbance at 360 nm in a Cary 60 UV -Vis spectrophotometer (Agilent Technologies). Background absorbance was recorded prior to the addition of the GTPase and subtracted from the sample signals. The slope of the measured time courses corresponded to the GTP hydrolysis rate. The concentration of releas ed phosphate was estimated using a molar absorption coefficient at 360 nm of 14,386 M -1 cm-1 previously described in [2]. Data were analysed by nonlinear regression to the M ichaelis-Menten equation with the program Origin Version 5.0 (OriginLab, Co., Northampton, MA). […]
M HEPES-KOH pH 7.4, 2.5 mM magnesium acetate, 50 mM sucrose, 2 mM DTT, 0.1 mM PMSF, 0.1 mM benzamidine, 8 mM putrescine, 1 mM spermidine. […]
Dilution at the end of each titration was no longer than 2.5% of the initial volume. Data were corrected for the background signal by subtracting the fluorescence of the same ligand concentration without the GTPase in the reaction mixture.
as §7

T3 sequence (P53893 whole entry P151L/R1086Q): as the sequence (P53893 whole entry R1086Q) above, with P151L counted along it

As to MgGDP, the “increase in binding enthalpy as temperature increased” value on Efl1 R1086Q (25 °C to 35 °C) was ~ 3 kcal mol^−1. Also, at Efl1 R1086Q, the “Nconfres (number of residues changing conformation, absolute value)” value came out at 21 and the ΔCpb is −270 cal mol^−1 K^−1. On Efl1 R1086Q (refers to Table 3, 30 °C), the “surface buried by the conformational change” value is ~ 1000 Å. Moreover, the “ΔΔCpb (Efl1 R1086Q•Sdo1 vs isolated enzyme)” value on Efl1 R1086Q•Sdo1 (presence of magnesium ions) is given as −45 cal mol^−1 K^−1.

With MgGTP, the ΔCpb on Efl1 R1086Q P151L was −220 cal mol^−1 K^−1; with wild-type Efl1, −560 cal mol^−1 K^−1; at Efl1 R1086Q, 10 cal mol^−1 K^−1; on Efl1 R1086Q•Sdo1 (+Mg^2+, from ΔHb at 25–35 °C), −400 cal mol^−1 K^−1. The “fold increase in affinity from 25 °C to 35 °C” value at Efl1 R1086Q (35 °C vs 25 °C) worked out at 1.2 fold. In addition, the “Nconfres (number of residues changing conformation, absolute value)” value is on record as 3 on Efl1 R1086Q and 36 at Efl1 R1086Q•Sdo1 (+Mg^2+, 30 °C). At Efl1 R1086Q•Sdo1 (presence of magnesium ions), the “additional residues modified with respect to the isolated enzyme” value is 40. The “ΔΔCpb (Efl1 R1086Q•Sdo1 vs isolated enzyme)” value on Efl1 R1086Q•Sdo1 (presence of magnesium ions) is on record as −410 cal mol^−1 K^−1.

B1: Efl1 L910K (Saccharomyces cerevisiae S288C; L910K) (protein)
chain: MPRVESETYKRLQNDPSCIRNICIVAHVDHGKTSLSDSLLASNGIISQRLAGKIRFLDARPDEQLRGITMESSAISLYFRVLRKQEGSDEPLVSEHLVNLIDSPGHIDFSSEVSAASRLCDGAVVLVDVVEGVCSQTVTVLRQCWTEKLKPILVLNKIDRLITELQLTPQEAYIHLSKVIEQVNSVIGSFFANERQLDDLFWREQLEKNENAEYIEKDDSGIYFNPTDNNVIFASAIDGWGFNIGQLAKFYEQKLGAKRENLQKVLWGDFYMDPKTKKIINNKGLKGRSLKPLFTSLILENIWKIYQNIITSRDSEMVEKIAKTLNIKLLARDLRSKDDKQLLRTIMGQWLPVSTAVLLTVIEKLPSPLESQTDRLNTILVSESDTAAMDPRLLKAMKTCDKEGPVSAYVSKMLSIPREELPVESKRIASSDELMERSRKAREEALNAAKHAGMVENMAMMDLNDNSKNTSDLYKRAKDTVMTPEVGEQTKPKPSRNNDVFCVVSEPSSALDLEFEYEGEDDSDSQDNFGLDFVPTDIDPNDPLSSMFEYEEEDPLLESIKQISEDVNDEVDDIFDEKEECLVAFARIYSGTLRVGQEISVLGPKYDPKCPEEHIETAIITHLYLFMGKELVPLDVCPSGNIVGIRGLAGKVLKSGTLIEKGVQGVNLAGVNFHFTPIVRVAVEPANPVEMSKLVRGLKLLDQADPCVHTYVENTGEHILCTAGELHLERCLKDLTERFAGIEITHSEPAIPYRETFLSASDMNPPQNSQLGRGVHELLLSQYKITFRTFPLSGKVTDFLSQHQNSIKNILKTSTSSMDPVIESTGSSFLDKKSLLVAFEEVINQEEKSRELLSGFKVKLAGFGPSRVGCNILLSQDNLLGSLFEGTPAAFEYSDSIKNGFQLAVSEGPKANEPVQGMCVLVESVHKMSQDEIESIEDPRYQQHIVDLSGRLITSTRDAIHEAFLDWSPRIMWAIYSCDIQTSVDVLGKVYAVILQRHGKIISEEMKEGTPFFQIEAHVPVVEAFGLSEDIRKRTSGAAQPQLVFSGFECIDLDPFWVPTTEEELEELGDTADRENIARKHMNAIRRRKGLFIEEKVVENAEKQRTLKKN
notes: recombinantly expressed in S. cerevisiae; isolated GTPase
For B1, in data set [1], the Michaelis-Menten constant (Km) amounted to 185 µM.

B2: Efl1 R1086Q • Sdo1: binary complex of mutant GTPase Efl1 R1086Q and effector Sdo1 (protein, UniProt P53893 1-1110; Q07953 1-250, looked up, variant R1086Q)
Ribosome assembly protein 1: B1 chain with K910L, R1086Q
Ribosome maturation protein …: MPINQPSGQIKLTNVSLVRLKKARKRFEVACYQNKVQDYRKGIEKDLDEVLQIHQVFMNVSKGLVANKEDLQKCFGTTNVDDVIEEIMHKGEIQLSEKERQLMLNKVNNEMLTIVSAKCINPVSKKRYPPTMIHKALQELKFSPVINKPAKLQALEAIKLLVSKQIIPIVRAKMKVKVAISEPSRQPELIEKISKLIASSPGESTKPELDPWTCTGLIDPVNYRDLMTLCDKKGTVQVLDMAVIDNTTHN
modifications: binary complex
With B2, the turnover number (kcat) in data set [2] came out at 0.0112 s⁻¹.

B3: Efl1 L910K • Sdo1: binary complex of mutant GTPase Efl1 L910K and effector Sdo1 (protein, UniProt P53893 1-1110; Q07953 1-250, looked up, variant L910K)
Ribosome assembly protein 1: B1 chain
Ribosome maturation protein …: B2 Ribosome maturation protein …
modifications: binary complex
For the molecule B3, in data set [2], the kcat is 0.0125 s⁻¹.

B4: Efl1 WT • Sdo1: binary complex of wild-type Efl1 GTPase and effector Sdo1 (protein, UniProt P53893 1-1110; Q07953 1-250, looked up)
Ribosome assembly protein 1: B1 chain with K910L
Ribosome maturation protein …: B2 Ribosome maturation protein …
modifications: binary complex
B4: the kcat in data set [2] is 0.0107 s⁻¹.
